Experimental data from patent publication US20180098954A1, “AMELIORATING AGENT FOR EXERCISE-INDUCED GASTROINTESTINAL DISORDERS” (AJINOMOTO CO., INC., priority 2015, published 2018).

How the values were obtained:
CD2F1 mice [1] = assay: feed intake after totally exhausting treadmill exercise for 3 consecutive days; assay type: in vivo; details: male CD2F1 mice; normal diet added with cystine (2%) in place of casein for 8 days; after totally exhausting exercise for 3 consecutive days; versus exercise group; P<0.05 (FIG. 5)
Source text: Athletes are known to experience gastrointestinal upset and loss of appetite in scenes where intense training such as a camp training and the like are repeated. Therefore, the improving effect of cystine on exercise-induced decrease in appetite was studied by the following test. 6-Week-old male CD2F1 mice (Charles River Laboratories Japan, Inc.) were divided into 3 groups (non-exercise group, exercise group, and exercise+2% cystine group), and a normal diet (AIN-93G composition) was given to non-exercise group and exercise group, and a normal diet (AIN-93G composition) added with cystine (2%) in place of casein was given to exercise+2% cystine group, each for 8 days. Thereafter, exercise group and exercise+2% cystine group were made to run in a treadmill to total exhaustion for 3 consecutive days, and non-exercise group was not allowed to exercise (see FIG. 4). While exercise group and exercise+2% cystine group ran, non-exercise group was fasted and deprived of water. A new feed was given every day after completion of the totally exhausting exercise, recovered the next day and the amount of the remaining feed was measured, from which feed intake was calculated.

CD2F1 mice [2] = assay: gastrointestinal tract permeability of FD4 (FITC-dextran) after 4 hr running in a hamster wheel; assay type: in vivo; details: male CD2F1 mice, FD4 500 mg/kg orally
Source text: It is known that high molecular weight substances that are not usually absorbed from the gastrointestinal tract penetrate the intestine and enter the blood when the barrier function of the gastrointestinal tract is declined (FIG. 1). Therefore, the improving effect of cystine on exercise-induced decline in gastrointestinal tract barrier function was studied by the following test. […] According to the method described in Cani et al., Gut 2009, 58(8) : 1091-1103, which is incorporated herein by reference in its entirety, FD4 concentration that leaked into the blood from the gastrointestinal tract was calculated by measuring the fluorescence intensity in the blood, based on which the gastrointestinal tract permeability of FD4 was evaluated (see FIG. 2). To be specific, blood was collected from the mice under isoflurane anesthesia, the collected blood was centrifuged to give plasma, the obtained plasma was diluted 2-fold with phosphate buffer, and fluorescence intensity was measured under the conditions of excitation wavelength: 485 nm, detection wavelength: 535 nm (measurement device SPECTRA MAX GEMINI EM Molecular Devices Japan). […] After completion of running, the gastrointestinal tract permeability of FD4 was evaluated in the same manner as in Example 1.

N[C@@H](CSSC[C@H](N)C(=O)O)C(=O)O [cystine]
relative feed intake after exercise (Pre run as 100%) (CD2F1 mice [1]): significantly high as compared to the exercise group | FD4 concentration in blood (gastrointestinal tract permeability), compared to Gln+Ex (CD2F1 mice [2]; cystine (2%) diet versus glutamine (2%) diet for 7 days, blood after 1 hr (FIG. 3)): lower FD4 concentration in blood as compared to the group (Gln+Ex) | FD4 concentration in blood (gastrointestinal tract permeability), compared to Ex (CD2F1 mice [2]; normal diet added with cystine (2%) for 7 days, blood after 1 hr, versus exercise group on normal diet, P<0.05 (FIG. 3)): lower FD4 concentration in blood as compared to Ex
